Experimental data reported in patent US20250195513A1, “DEGRADATION OF IRAK4 BY CONJUGATION OF IRAK4 INHIBITORS WITH E3 LIGASE LIGAND AND METHODS OF USE” (BeiGene, Ltd., priority 2022, published 2025).
Like-named read-outs stand apart in the source and are kept apart here.

Target: T1, IRAK4 (Homo sapiens, UniProt Q9NWZ3)
T1 construct: endogenous in cells; host or cells: Karpas299
T1 sequence (Q9NWZ3 1-460): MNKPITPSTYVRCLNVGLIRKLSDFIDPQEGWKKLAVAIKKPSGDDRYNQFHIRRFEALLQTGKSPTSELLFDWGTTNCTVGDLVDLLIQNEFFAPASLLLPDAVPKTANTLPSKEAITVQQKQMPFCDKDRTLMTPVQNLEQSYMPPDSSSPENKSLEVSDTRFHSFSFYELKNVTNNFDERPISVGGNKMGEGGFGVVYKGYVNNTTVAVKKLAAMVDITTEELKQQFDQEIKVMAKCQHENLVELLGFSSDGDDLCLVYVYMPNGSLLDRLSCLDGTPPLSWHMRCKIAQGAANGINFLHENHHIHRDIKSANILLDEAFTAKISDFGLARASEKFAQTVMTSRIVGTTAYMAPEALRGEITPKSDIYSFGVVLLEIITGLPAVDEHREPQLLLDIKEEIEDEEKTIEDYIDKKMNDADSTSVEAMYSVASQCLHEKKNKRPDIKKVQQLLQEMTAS
Test: IRAK4 Degradation Assay (Karpas299, HTRF/TR-FRET)
Assay type: cell-based
Procedure, shortened: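 Compound potency as DC50 (IC50) came from four-parameter fits of percent IRAK4 degradation. IRAK4 was measured by HTRF (665/620 nm) in lysates of Karpas299 cells seeded at 0.2 million per well. Cells had been treated with compound dilutions for 5 or 24 h.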

[1] = Karpas-299 cells, 24 h treatment, maximum percentage of degradation, read-out: IRAK4 in Karpas-299 (24 h) Dmax (%)
[2] = Karpas-299 cells, 24 h treatment, read-out: IRAK4 in Karpas-299 (24 h) DC50
[3] = Karpas-299 cells, 5 h treatment, maximum percentage of degradation, read-out: IRAK4 in Karpas-299 (5 h) Dmax (%)
[4] = Karpas-299 cells, 5 h treatment, read-out: IRAK4 in Karpas-299 (5 h) DC50

Compound	Dmax [1] [%]	DC50 [2] [nM]	further results
O=C1CC[C@H](c2c(F)cc(N3CC(C(=O)N4CCN([C@H]5CC[C@H](n6cc(NC(=O)c7coc(-c8ccnc(NCC(F)(F)F)c8)n7)c(C(F)F)n6)CC5)CC4)C3)cc2F)C(=O)N1 [Example 16, N-(3-(difluoromethyl)-1-((1r,4r)-4-(4-(1-(4-((R)-2,6-dioxopiperidin-3-yl)-3,5-difluorophenyl)azetidine-3-carbonyl)piperazin-1-yl)cyclohexyl)-1H-pyrazol-4-yl)-2-(2-((2,2,2-trifluoroethyl)amino)pyridin-4-yl)oxazole-4-carboxamide]	98	0.67	DC50 (Degradation (Karpas-299), comparison table, Linker Type B, read-out: Compound (Linker Type B) DC50): 0.67 nM; Dmax (Degradation (Karpas-299), comparison table, Linker Type B, read-out: Compound (Linker Type B) Dmax (%)): 98%; Dmax [3]: 96%; DC50 [4]: 5.7 nM
CC(C)(O)c1cc2nn([C@H]3CC[C@H](N4CCN(CCc5cc(F)c([C@H]6CCC(=O)NC6=O)c(F)c5)CC4)CC3)cc2cc1NC(=O)c1ccn2cc(C#N)cnc12 [Example 413, 3-cyano-N-(2-((1R,4r)-4-(4-(4-((R)-2,6-dioxopiperidin-3-yl)-3,5-difluorophenethyl)piperazin-1-yl)cyclohexyl)-6-(2-hydroxypropan-2-yl)-2H-indazol-5-yl)pyrrolo[1,2-a]pyrimidine-8-carboxamide]	25	> 1000	–
CC(C)(O)c1cc2nn(C3CCN(C4CCN(C(=O)[C@@H]5CCN(c6cc(F)c([C@H]7CCC(=O)NC7=O)c(F)c6)C5)CC4)CC3)cc2cc1NC(=O)c1cccn(C2CC2)c1=O [Example 118, 1-cyclopropyl-N-(2-(1′-((R)-1-(4-((R)-2,6-dioxopiperidin-3-yl)-3,5-difluorophenyl)pyrrolidine-3-carbonyl)-[1,4′-bipiperidin]-4-yl)-6-(2-hydroxypropan-2-yl)-2H-indazol-5-yl)-2-oxo-1,2-dihydropyridine-3-carboxamide]	85	2.8	–
O=C1CC[C@H](c2c(F)cc(N3CC(C(=O)N4CCN([C@H]5CC[C@H](n6cc7cc(NC(=O)c8cccc(C(F)(F)F)n8)c(OC8COC8)nc7n6)CC5)CC4)C3)cc2F)C(=O)N1 [Example 98, N-(2-((1r,4r)-4-(4-(1-(4-((R)-2,6-dioxopiperidin-3-yl)-3,5-difluorophenyl)azetidine-3-carbonyl)piperazin-1-yl)cyclohexyl)-6-(oxetan-3-yloxy)-2H-pyrazolo[3,4-b]pyridin-5-yl)-6-(trifluoromethyl)picolinamide]	99	0.6	–
CC(C)(O)c1cc2nn(C3CCN(C4CCN(C(=O)C5CN(c6cc(F)c([C@H]7CCC(=O)NC7=O)c(F)c6)C5)CC4)CC3)cc2cc1NC(=O)c1cccn(C2CC2)c1=O [Example 117, (R)-1-cyclopropyl-N-(2-(1′-(1-(4-(2,6-dioxopiperidin-3-yl)-3,5-difluorophenyl)azetidine-3-carbonyl)-[1,4′-bipiperidin]-4-yl)-6-(2-hydroxypropan-2-yl)-2H-indazol-5-yl)-2-oxo-1,2-dihydropyridine-3-carboxamide]	78	4.2	–
O=C1CC[C@H](c2c(F)cc(N3CC(CN4CCN([C@H]5CC[C@H](n6cc(NC(=O)c7coc(-c8ccnc(NCC(F)(F)F)c8)n7)c(C(F)F)n6)CC5)CC4)C3)cc2F)C(=O)N1 [Example 19, N-(3-(difluoromethyl)-1-((1r,4r)-4-(4-((1-(4-((R)-2,6-dioxopiperidin-3-yl)-3,5-difluorophenyl)azetidin-3-yl)methyl)piperazin-1-yl)cyclohexyl)-1H-pyrazol-4-yl)-2-(2-((2,2,2-trifluoroethyl)amino)pyridin-4-yl)oxazole-4-carboxamide]	95	1	–
O=C1CC[C@H](c2c(F)cc(N3CC[C@@H](C(=O)N4CCN([C@H]5CC[C@H](n6cc7cc(NC(=O)c8cccc(C(F)(F)F)n8)c(C(=O)NC8CC8)cc7n6)CC5)CC4)C3)cc2F)C(=O)N1 [Example 129, N-cyclopropyl-2-((1R,4r)-4-(4-((R)-1-(4-((R)-2,6-dioxopiperidin-3-yl)-3,5-difluorophenyl)pyrrolidine-3-carbonyl)piperazin-1-yl)cyclohexyl)-5-(6-(trifluoromethyl)picolinamido)-2H-indazole-6-carboxamide]	99	1.9	–
CCC(C)c1cc(-c2nc(C(=O)Nc3cn([C@H]4CC[C@H](N5CCN(C(=O)[C@@H]6CCN(c7cc(F)c([C@H]8CCC(=O)NC8=O)c(F)c7)C6)CC5)CC4)nc3C(F)F)co2)ccn1 (stereo partly drawn) [Example 170, 2-(2-(sec-butyl)pyridin-4-yl)-N-(3-(difluoromethyl)-1-((1R,4r)-4-(4-((R)-1-(4-((R)-2,6-dioxopiperidin-3-yl)-3,5-difluorophenyl)pyrrolidine-3-carbonyl)piperazin-1-yl)cyclohexyl)-1H-pyrazol-4-yl)oxazole-4-carboxamide]	96	6.8	–

Now from value to molecule, other results behind:

Dmax [1] [%]	DC50 [2] [nM]	Compound	further results
99	0.2	CC(C)(O)c1cc2nn([C@H]3CC[C@H](CN4CCN(C5CN(c6cc(F)c([C@H]7CCC(=O)NC7=O)c(F)c6)C5)CC4)CC3)cc2cc1NC(=O)c1csc(-c2cn[nH]c2)n1 [Example 433, N-(2-((1r,4r)-4-((4-(1-(4-((R)-2,6-dioxopiperidin-3-yl)-3,5-difluorophenyl)azetidin-3-yl)piperazin-1-yl)methyl)cyclohexyl)-6-(2-hydroxypropan-2-yl)-2H-indazol-5-yl)-2-(1H-pyrazol-4-yl)thiazole-4-carboxamide]	–
96	3.1	O=C1CC[C@H](c2c(F)cc(N3CC(C(=O)N4CCN(c5ccc(-n6cc(NC(=O)c7coc(-c8ccnc(NCC9CC9)c8)n7)c(C(F)F)n6)cn5)CC4)C3)cc2F)C(=O)N1 [Example 90]	–
96	5.8	Cc1cc(-c2nc(C(=O)Nc3cn(-c4ccc(N5CCN(C(=O)C6CN(c7ccc(N8CCC(=O)NC8=O)cc7)C6)CC5)nc4)nc3C(N)=O)co2)ccn1 [Example 31, N-(3-carbamoyl-1-(6-(4-(1-(4-(2,4-dioxotetrahydropyrimidin-1(2H)-yl)phenyl)azetidine-3-carbonyl)piperazin-1-yl)pyridin-3-yl)-1H-pyrazol-4-yl)-2-(2-methylpyridin-4-yl)oxazole-4-carboxamide]	Dmax [3]: 89%; DC50 [4]: 8.2 nM
95	6	O=C1CCN(c2ccc(N3CC[C@@H](C(=O)N4CCN([C@H]5CC[C@H](n6cc(NC(=O)c7coc(-c8ccnc(NCC9CC9)c8)n7)c(C(F)F)n6)CC5)CC4)C3)cc2)C(=O)N1 [Example 23, 2-(2-((cyclopropylmethyl)amino)pyridin-4-yl)-N-(3-(difluoromethyl)-1-((1R,4r)-4-(4-((R)-1-(4-(2,4-dioxotetrahydropyrimidin-1(2H)-yl)phenyl)pyrrolidine-3-carbonyl)piperazin-1-yl)cyclohexyl)-1H-pyrazol-4-yl)oxazole-4-carboxamide]	–
97	1.2	O=C1CC[C@H](c2c(F)cc(N3CC[C@@H](C(=O)N4CCN([C@H]5CC[C@H](n6cc(NC(=O)c7coc(-c8ccnc(NCC9CC9)c8)n7)c(C(F)F)n6)CC5)C(=O)C4)C3)cc2F)C(=O)N1 [Example 101, 2-(2-((cyclopropylmethyl)amino)pyridin-4-yl)-N-(3-(difluoromethyl)-1-((1R,4r)-4-(4-((R)-1-(4-((R)-2,6-dioxopiperidin-3-yl)-3,5-difluorophenyl)pyrrolidine-3-carbonyl)-2-oxopiperazin-1-yl)cyclohexyl)-1H-pyrazol-4-yl)oxazole-4-carboxamide]	–
95	10	COc1cc2nn([C@H]3CC[C@H](CN4CCN(C(=O)[C@@H]5CCN(c6cc(F)c(N7CCC(=O)NC7=O)c(F)c6)C5)CC4)CC3)cc2cc1NC(=O)c1cccn(C2CC2)c1=O [Example 171, 1-cyclopropyl-N-(2-((1R,4r)-4-((4-((R)-1-(4-(2,4-dioxotetrahydropyrimidin-1(2H)-yl)-3,5-difluorophenyl)pyrrolidine-3-carbonyl)piperazin-1-yl)methyl)cyclohexyl)-6-methoxy-2H-indazol-5-yl)-2-oxo-1,2-dihydropyridine-3-carboxamide]	–
10	> 10000	COc1cc2nn(C3CCN(C(=O)[C@H]4CC[C@H](Oc5ccc(C6CCC(=O)NC6=O)cc5)CC4)CC3)cc2cc1NC(=O)c1cccc(C(F)(F)F)n1 (some centres unmarked) [Example 35, N-(2-(1-((1r,4r)-4-(4-(2,6-dioxopiperidin-3-yl)phenoxy)cyclohexane-1-carbonyl)piperidin-4-yl)-6-methoxy-2H-indazol-5-yl)-6-(trifluoromethyl)picolinamide]	DC50 (Degradation (Karpas-299), comparison table, Linker Type A, read-out: Compound (Linker Type A) DC50): > 10000 nM; Dmax (Degradation (Karpas-299), comparison table, Linker Type A, read-out: Compound (Linker Type A) Dmax (%)): 10%
